Measured values: EP0571593B1, “NEW NON IONIC IODIZED AGENTS FOR X-RAY CONTRASTING, METHOD FOR PREPARING THEM AND GALENICAL COMPOSITIONS CONTAINING THEM” (CENTRO INVESTIGACION JUSTESA IMAGEN S.A., priority 1991, dated 1993)

What was measured:
Format in all cases: physicochemical
[1] = Iodine content
[2] = Osmolality of aqueous solutions; settings: 300mg I/ml
[3] = Viscosity of aqueous solutions; settings: 30°C, 300mg I/ml

% Iodine [1] | Osmolality mosm/kg at 300mg I/ml [2] [mosm/kg] | Viscosity mPa s (30°C) at 300mg I/ml [3] | Structure (SMILES)
50% | 155 | 8,2 mPa s | COCC(=O)N(CCO)c1c(I)c(C(=O)NCC(O)CO)c(I)c(C(=O)N(CCO)CC(=O)N(CCO)c2c(I)c(C(=O)NCCO)c(I)c(C(=O)NCCO)c2I)c1I (stereo not drawn) [EXAMPLE 32, N,N'-bis-(2-hydroxyethyl)-5-{3-[N-(2,3-dihydroxypropyl)carbamoyl]-5-methoxyacetyl-N-(2-hydroxyethyl)amino-2,4,6-triiodobenzoyl-N-(2-hydroxyethyl)aminoacetyl-N-(2-hydroxyethyl)amino}-2,4,6-triiodoisophthalamide]
50,0% | 135 | 9,0 mPa s | COCC(=O)Nc1c(I)c(C(=O)N(C)CC(=O)N(C)c2c(I)c(C(=O)NCC(O)CO)c(I)c(C(=O)NCC(O)CO)c2I)c(I)c(C(=O)N(CCO)CC(O)CO)c1I (stereo not drawn) [EXAMPLE 41, N,N'-bis-(2,3-dihydroxypropyl)-5-{3-[N-(2-hydroxyethyl)-N-(2,3-dihydroxypropyl)carbamoyl]-5-methoxyacetamido-2,4,6-triiodobenzoyl-N-methylaminoacetyl-N-methylamino} --2,4,6-triiodoisophthalamide]
50,5% | 190 | 7,2 mPa s | O=C(CN(CC(O)CO)C(=O)c1c(I)c(NC(=O)CO)c(I)c(C(=O)NCC(O)CO)c1I)Nc1c(I)c(C(=O)NCC(O)CO)c(I)c(C(=O)NCC(O)CO)c1I (stereo not drawn) [EXAMPLE 13, N,N'-bis-(2,3-dihydroxypropyl)-5-{3-[N-(2,3-dihydroxypropyl)carbamoyl]-5-hydroxyacetamido-2,4,6-triiodobenzoyl-N-(2,3-dihydroxypropyl)aminoacetamido}-2,4,6-triiodoisophthalamide]
48,6% | 204 | 8,9 mPa s | COCC(=O)Nc1c(I)c(C(=O)NC(CO)C(O)CO)c(I)c(C(=O)N(C)CC(=O)N(C)c2c(I)c(C(=O)NC(CO)C(O)CO)c(I)c(C(=O)NC(CO)C(O)CO)c2I)c1I (stereo not drawn) [EXAMPLE 10, N,N'-bis-(1-hydroxymethyl-2,3-dihydroxypropyl)-5-{3-[N-(1-hydroxymethyl-2,3-dihydroxypropyl)carbamoyl]-5-methoxyacetamido-2,4,6-triiodobenzoyl-N-methylaminoacetyl-N-methylamino}-2,4,6-triiodoisophthalamide]
50,5% | 119 | 10,2 mPa s | COCC(=O)Nc1c(I)c(C(=O)NCC(=O)Nc2c(I)c(C(=O)N(C)CC(O)CO)c(I)c(C(=O)N(C)CC(O)CO)c2I)c(I)c(C(=O)NC(CO)C(O)CO)c1I (stereo not drawn) [EXAMPLE 5, N,N'-bis-(2,3-dihydroxypropyl)-N,N'-dimethyl-5-{3-[N-(1-hydroxymethyl-2,3-dihydroxypropyl)carbamoyl]-5-methoxyacetamido-2,4,6-triiodobenzoylaminoacetamido}-2,4,6-triiodoisophthalamide]
50% | 289 | 9,4 mPa s | COCC(=O)Nc1c(I)c(C(=O)NCC(=O)N(C)c2c(I)c(C(=O)NC(CO)C(O)CO)c(I)c(C(=O)NC(CO)C(O)CO)c2I)c(I)c(C(=O)NCC(O)CO)c1I (stereo not drawn) [EXAMPLE 4, N,N'-bis-(1-hydroxymethyl-2,3-dihydroxypropyl)-5-{3-(N-(2,3-dihydroxypropyl)carbamoyl]-5-methoxyacetamido-2,4,6-triiodobenzoylaminoacetyl-N-methylamino}-2,4,6-triiodo isophthalamide]
50,6% | 155 | 9,1 mPa s | CC(=O)Nc1c(I)c(C(=O)NCC(O)CO)c(I)c(C(=O)N(C)CC(=O)N(C)c2c(I)c(C(=O)NC(CO)C(O)CO)c(I)c(C(=O)NC(CO)C(O)CO)c2I)c1I (stereo not drawn) [EXAMPLE 38, N,N'-bis-(1-hydroxymethyl-2,3-dihydroxypropyl)-5-{3-[N-(2,3-dihydroxypropyl]carbamoyl]-5-acetamido-2,4,6-triiodobenzoyl -N-methylacetyl-N-methylamino}-2,4,6-triiodoisophthalamide]
49,1% | 160 | 10,2 mPa s | COCCN(C(=O)CO)c1c(I)c(C(=O)NCC(=O)N(CCOC)c2c(I)c(C(=O)NCC(O)CO)c(I)c(C(=O)NCC(O)CO)c2I)c(I)c(C(=O)NCC(O)CO)c1I (stereo not drawn) [EXAMPLE 40, N,N'-bis-(2,3-dihydroxypropyl)-5-{3-[N-(2,3-dihydroxypropyl)carbamoyl]-5-hydroxyacetyl-N-(2-methoxyethyl)amino-2,4,6-triiodobenzoylaminoacetyl-N-(2-methoxyethyl)amino} -2,4,6-triiodoisophthalamide]
51,6% | 130 | 8,6 mPa s | COCC(=O)Nc1c(I)c(C(=O)NCC(O)CO)c(I)c(C(=O)N(C)CC(=O)N(C)c2c(I)c(C(=O)NCC(O)CO)c(I)c(C(=O)NCC(O)CO)c2I)c1I (stereo not drawn) [EXAMPLE 12, N,N'-bis-(2,3-dihydroxypropyl)-5-{3-[N-(2,3-dihydroxypropyl)carbamoyl]-5-methoxyacetamido-2,4,6-triiodobenzoyl -N-methylaminoacetyl-N-methylamino}-2,4,6-triiodoisophthalamide]

The remaining lines, values behind:

Structure (SMILES) | % Iodine [1] | Osmolality mosm/kg at 300mg I/ml [2] [mosm/kg] | Viscosity mPa s (30°C) at 300mg I/ml [3]
COCC(=O)Nc1c(I)c(C(=O)NCC(O)CO)c(I)c(C(=O)N(CC(=O)Nc2c(I)c(C(=O)NCC(O)CO)c(I)c(C(=O)NCC(O)CO)c2I)CC(O)CO)c1I (stereo not drawn) [EXAMPLE 15, N,N'-bis-(2,3-dihydroxypropyl)-5-{3-[N-(2,3-dihydroxypropyl)carbamoyl]-5-methoxyacetamido-2,4,6-triiodobenzoyl -N-(2,3-dihydroxypropyl)aminoacetamido}-2,4,6-triiodo isophthalamide] | 50% | 162 | 8,6 mPa s
CN(CC(=O)N(C)c1c(I)c(C(=O)NC(CO)C(O)CO)c(I)c(C(=O)NC(CO)C(O)CO)c1I)C(=O)c1c(I)c(NC(=O)CO)c(I)c(C(=O)NCC(O)CO)c1I (stereo not drawn) [EXAMPLE 8, N,N'-bis-(1-hydroxymethyl-2,3-dihydroxypropyl)-5-{3-[N-(2,3-dihydroxypropyl)carbamoyl]-5-hydroxyacetamido-2,4,6-triiodobenzoyl-N-methylaninoacetyl-N-nethylamino}-2,4,6-tri iodoisophthalamide] | 50% | 190 | 7,6 mPa s
CC(=O)Nc1c(I)c(C(=O)NCC(O)CO)c(I)c(C(=O)N(C)CC(=O)N(C)c2c(I)c(C(=O)NCC(O)CO)c(I)c(C(=O)NCC(O)CO)c2I)c1I (stereo not drawn) [EXAMPLE 37, N,N'-bis-(2,3-dihydroxypropyl)-5-{3-[N-(2,3-dihydroxypropyl)carbamoyl]-5-acetamido-2,4,6-triiodobenzoyl-N-methylacetyl-N-methylamino}-2,4,6-triiodoisophthalamide] | 52,6% | 130 | 9,9 mPa s
COCC(=O)Nc1c(I)c(C(=O)NCC(O)CO)c(I)c(C(=O)N(C)CC(=O)N(C)c2c(I)c(C(=O)N(C)CC(O)CO)c(I)c(C(=O)N(C)CC(O)CO)c2I)c1I (stereo not drawn) [EXAMPLE 25, N,N'-bis-(2,3-dihydroxypropyl)-N,N'-dimethyl-5-{3-[N-(2,3-dihydroxypropyl)carbamoyl]-5-methoxyacetamido-2,4,6-triiodobenzoyl-N-methylaminoacetyl-N-methylamino}-2,4,6-triiodo isophthalamide] | 50,6% | 140 | 8,0 mPa s
COCC(=O)Nc1c(I)c(C(=O)NCC(O)CO)c(I)c(C(=O)N(CCO)CC(=O)Nc2c(I)c(C(=O)NC(CO)C(O)CO)c(I)c(C(=O)NC(CO)C(O)CO)c2I)c1I (stereo not drawn) [EXAMPLE 22, N,N'-bis-(1-hydroxymethyl-2,3-dihydroxypropyl)-5-{3-[N-(2,3-dihydroxypropyl)carbamoyl]-5-methoxyacetamido-2,4,6-triiodobenzoyl-N-(2-hydroxyethyl)aminoacetamido}-2,4,6-triiodo isophthalamide] | 49% | 118 | 10,0 mPa s
COCC(=O)Nc1c(I)c(C(=O)NCC(O)CO)c(I)c(C(=O)N(CC(=O)N(C)c2c(I)c(C(=O)NCC(O)CO)c(I)c(C(=O)NCC(O)CO)c2I)CC(O)COC)c1I (stereo not drawn) [EXAMPLE 39, N,N'-bis-(2,3-dihydroxypropyl)-5-{3-[N-(2,3-dihydroxypropyl)carbamoyl]-5-methoxyacetamido-2,4,6-triiodobenzoyl--N-(2-hydroxy-3-methoxypropyl)aminoacetyl-N-methylamino} -2,4,6-triiodoisophthalamide] | 49,1% | 190 | 9,6 mPa s
CN(CC(O)CO)C(=O)c1c(I)c(C(=O)N(C)CC(O)CO)c(I)c(N(C)C(=O)CNC(=O)c2c(I)c(NC(=O)CO)c(I)c(C(=O)NCC(O)CO)c2I)c1I (stereo not drawn) [EXAMPLE 26, N,N'-bis-(2,3-dihydroxypropyl)-N,N'-dimethyl-5-{3-[N-(2,3-dihydroxypropyl)carbamoyl]-5-hydroxyacetamido-2,4,6-triiodobenzoylaminoacetyl-N-methylamino}-2,4,6-triiodoiso phthalamide] | 51,6% | 145 | 7,7 mPa s
COCC(=O)Nc1c(I)c(C(=O)NCC(=O)Nc2c(I)c(C(=O)NC(CO)C(O)CO)c(I)c(C(=O)NC(CO)C(O)CO)c2I)c(I)c(C(=O)NC(CO)C(O)CO)c1I (stereo not drawn) [EXAMPLE 7, N,N'-bis-(1-hydroxymethyl-2,3-dihydroxypropyl)-5-{3-[N-(1-hydroxymethyl-2,3-dihydroxypropyl)carbamoyl]-5-methoxyacetamido-2,4,6-triiodobenzoylaminoacetamido}-2,4,6-triiodo isophthalamide] | 49,5% | 147 | 10,5 mPa s
